# Source: patent US20120095036A1, “NOVEL SUBSTITUTED INDAZOLE AND AZA-INDAZOLE DERIVATIVES AS GAMMA SECRETASE MODULATORS” (priority 2009, published 2012)
# How the values were obtained:
# [1] = test system: Aβ42; assay: Method 2: Aβ42 Alphalisa on supernatant of SKNBE2 cells carrying APP 695 wild type; type: cell-based; settings: Homo sapiens, SKNBE2 cells APP 695 wild type, overnight
# Outline: (§1)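 SKNBE2 cells expressing wild-type APP695 (10^4/well) were incubated overnight at 37 °C with compound at several concentrations. Secreted Aβ42 (C-terminal/N-terminal antibody pair) and Aβtotal (N-terminal/4G8 pair) were measured by AlphaLISA in the supernatant. IC50 values came from 4-parameter fits of percent of untreated control.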
# [2] = test system: Aβtotal; assay: Method 2: Aβtotal Alphalisa on supernatant of SKNBE2 cells carrying APP 695 wild type; type: cell-based; settings: Homo sapiens, SKNBE2 cells APP 695 wild type, overnight
# Outline: as §1
# [3] = test system: Aβtotal; assay: In vivo efficacy: Aβtotal in brain (ELISA); parameters: species or system mouse; settings: brain soluble fraction; typical protocol: single oral dose, overnight fasted animals, after four hours
# Source text: To determine whether acute administration of an Aβ42 lowering agent would reduce Aβ42 levels in vivo, non-transgenic rodents, e.g. mice or rats were used. Alternatively, two to three month old Tg2576 mice expressing APP695 containing the “Swedish” variant can be used or a transgenic mouse model developed by Dr. Fred Van Leuven (K.U.Leuven, Belgium) and co-workers, with neuron-specific expression of a clinical mutant of the human amyloid precursor protein [V717I] (Moechars et al., 1999 J. Biol. Chem. 274, 6483). Young transgenic mice have high levels of Aβ in the brain but no detectable Aβ deposition. At approximately 6-8 months of age, the transgenic mice start to display spontaneous, progressive accumulation of β-amyloid (A13) in the brain, eventually resulting in amyloid plaques within the subiculum, hippocampus and cortex. Animals treated with the Aβ42 lowering agent were examined and compared to those untreated or treated with vehicle and brain levels of soluble Aβ42 and total Aβ would be quantitated by standard techniques, for example, using ELISA. Treatment periods varied from hours to days and were adjusted based on the results of the Aβ42 lowering once a time course of onset of effect could be established.
# A typical protocol for measuring Aβ42 lowering in vivo is shown but it is only one of many variations that could be used to optimize the levels of detectable Aβ. For example, Aβ42 lowering compounds were formulated in 20% of Captisol® (a sulfobutyl ether of β-cyclodextrin) in water or 20% hydroxypropyl β cyclodextrin. The Aβ42 lowering agents were administered as a single oral dose or by any acceptable route of administration to overnight fasted animals. After four hours, the animals were sacrificed and Aβ42 levels were analysed.
# Blood was collected by decapitation and exsanguinations in EDTA-treated collection tubes. Blood was centrifuged at 1900 g for 10 minutes (min) at 4° C. and the plasma recovered and flash frozen for later analysis. The brain was removed from the cranium and hindbrain. The cerebellum was removed and the left and right hemisphere were separated. The left hemisphere was stored at −18° C. for quantitative analysis of test compound levels. The right hemisphere was rinsed with phosphate-buffered saline (PBS) buffer and immediately frozen on dry ice and stored at −80° C. until homogenization for biochemical assays.
# Mouse brains were resuspended in 10 volumes of 0.4% DEA (diethylamine)/50 mM NaCl pH 10 (for non-transgenic animals) or 0.1% 3-[(3-cholamidopropyl)-dimethyl-ammonio]-1-propanesulfonate (CHAPS) in tris buffered saline (TBS) (for transgenic animals) containing protease inhibitors (Roche-11873580001 or 04693159001) per gram of tissue, e.g. for 0.158 g brain, add 1.58 ml of 0.4% DEA. All samples were sonicated for 30 sec on ice at 20% power output (pulse mode). Homogenates were centrifuged at 221.300×g for 50 min. The resulting high speed supernatants were then transferred to fresh tubes and were optionally further purified before the next step. A portion of the supernatant was neutralized with 10% 0.5 M Tris-HCl and this was used to quantify Aβtotal.
# The obtained supernatants were purified with Water Oasis HLB reverse phase columns (Waters Corp., Milford, Mass.) to remove non-specific immunoreactive material from the brain lysates prior subsequent Aβ detection. Using a vacuum manifold, all solutions were passed through the columns at a rate of approximately 1 ml/min, so the vacuum pressure was adjusted accordingly throughout the procedure. Columns were preconditioned with 1 ml of 100% MeOH, before equilibration with 1 ml of H2O, Non-neutralized brain lysates were loaded onto the columns. The loaded samples were then washed twice with the first wash performed with 1 ml of 5% MeOH, and the second wash with 1 ml of 30% MeOH. Finally, the Aβ was eluted from the columns and into 100×30 mm glass tubes, with a solution of 90% MeOH with 2% NH4OH. […]
IC50 [1] [nM],IC50 [2] [nM],melting point [°C],SMILES,Aβtotal (% Ctrl) _Mean [3] [% Ctrl]
7,6460,184.4,"COc1cccc(-n2nc3c(Nc4ccc(-n5cnc(C)c5)c(OC)c4)cccc3c2C)c1 [Compound 2, N-[3-methoxy-4-(4-methyl-1H-imidazol-1-yl)phenyl]-2-(3-methoxyphenyl)-3-methyl-2H-indazol-7-amine]",90
162,3980,,"COc1cc(Nc2cccc3cn(CC(F)(F)F)nc23)ccc1-c1cnc(C)o1 [Compound 6, N-[3-methoxy-4-(2-methyl-5-oxazolyl)phenyl]-2-(2,2,2-trifluoroethyl)-2H-indazol-7-amine]",95
15,> 10000,152.2,"COc1cccc(-n2nc3c(Nc4ccc(-c5cnc(C)o5)cc4)cccc3c2C)c1 [Compound 29, 2-(3-methoxyphenyl)-3-methyl-N-[4-(2-methyl-5-oxazolyl)phenyl]-2H-indazol-7-amine]",98
120,4360,194.4,"COc1cccc(-n2nc3c(Nc4ccc(-c5cnc(C)o5)c(OC)c4)nccc3c2C)c1 [Compound 42, N-[3-methoxy-4-(2-methyl-5-oxazolyl)phenyl]-2-(3-methoxyphenyl)-3-methyl-2H-pyrazolo[3,4-c]pyridin-7-amine]",100
81,8320,,"COc1cccc(-n2cc3cccc(Nc4ccc(-n5cnc(C)c5)c(OC)c4)c3n2)c1 [Compound 1, N-[3-methoxy-4-(4-methyl-1H-imidazol-1-yl)phenyl]-2-(3-methoxyphenyl)-2H-indazol-7-amine]",108
14,6610,,"COc1cc(Nc2cccc3cn(Cc4ccc(F)cc4)nc23)ccc1-n1cnc(C)c1 [Compound 15, 2-[(4-fluorophenyl)methyl]-N-[3-methoxy-4-(4-methyl-1H-imidazol-1-yl)phenyl]-2H-indazol-7-amine]",94

SMILES,IC50 [1] [nM],IC50 [2] [nM],melting point [°C],Aβtotal (% Ctrl) _Mean [3] [% Ctrl]
"COc1cc(Nc2cccc3cn(CC4CC4)nc23)ccc1-c1cnc(C)o1.Cl [Compound 38, 2-(cyclopropylmethyl)-N-[3-methoxy-4-(2-methyl-5-oxazolyl)phenyl]-2H-indazol-7-amine HCl]",234,4680,,106
